Laboratory results published in patent publication US10583119B2, “Compounds, compositions and methods for making the same” (Signum Biosciences, Inc., priority 2008, dated 2020).

What was measured:
[1] = target: T1, PP2A (Homo sapiens, UniProt P67775); assay: Phosphatase activity of PP2A using phosphorylase a as substrate; type: biochemical; settings: un-methylated PP2A, protein substrate phosphorylase a, absence of ME and MT
T1 construct: made in house
Method: After the reaction, proteins were precipitated by 50% (NH4)2SO4 (final concentration) twice, and collected by centrifugation. The pellet was re-dissolved and dialyzed in a buffer containing 50 mM Tris-HCl (pH6.9) and ImM DTT for 2×2 L at 4° C. overnight. Phosphorylase a (phospho-phosphorylase b) crystallized during the dialysis. The dialysate was centrifuged 14,000 r.p.m at 4° C. for 30 minutes, the supernatant was removed and purified ^32P-labelled phosphorylase a was re-dissolved in +50% glycerol, and stored at −20° C.
To measure PP2A's phosphatase activity, PP2A (5-20 nM) was incubated with phosphorylase a (5-10 μM) at 37° C. 10% TCA (final concentration) and was added to the reaction to precipitate proteins. Supernatant that contains free ^32P-phosphate group was added into scintillation counting solution (Ecoscint, National Diagnostics), and counted by scintillation counter (LS 6000SE, Beckman).

[2] = system: phosphorylated Tau; assay: Phosphorylated tau in vivo, weekly up to 4 weeks (PHF1 Western blot of brain); set-up: species or system mice; settings: 0.1% by weight in feed, mouse brain
Method: Swiss Webster mice ([…]) were fed ad libitum, either standard rodent chow (Control), or rodent chow formulated with 0.1 g Compound I-63 per 100 g chow (0.1% Compound I-63); water was changed weekly. Mice were housed at 23° C., on a 12 hour light and dark cycle, with 6 mice per cage. At weekly intervals up to 4 weeks, three and six mice from the Control and 0.1% Compound I-63 groups respectively were sacrificed by cervical dislocation, brains removed, snap-frozen in liquid nitrogen, and were stored at −80° C. Brains were homogenized in 350 pi of buffer containing 20 mM MOPS-Na, pH 7.2, 1 mM EDTA/DTT, 0.5 mg/L of aprotinin, leupeptin and pepstatin, 100 nM okadaic acid, and clarified by centrifugation (14,000 rpm, 10 min, 4° C.). Supernatant protein concentrations were measured by the Bradford method, 4 volumes of the supernatant and 1 volume of 5×SDS sample buffer were mixed and boiled for 2 minutes. 40 pg of the boiled homogenate were loaded on 12% polyacrylamide gels, and transferred to nitrocellulose membranes. Membranes are blocked in 5% BSA+TBST for 1 hour at room temperature, and incubated overnight at 4° C. with the following primary antibodies at the indicated dilutions: PHF1 mAb (recognizes phospho-Serine 396/404) at 1:2000, Tau-5 (Millipore; pan-tau mAb) at 1:10,000, and anti-GAPDH (Sigma mAb; used as loading control) at 1:50,000. Protein bands were detected with the ECL Plus reagent (GE Healthcare) and blots were exposed to Kodak XOmat film. Densitometric analyses were performed with ImageJ software. For relative phospho-tau levels of the Compound I-63-treated animals, the ratio of GAPDH-normalized phospho-tau to GAPDH-normalized total tau was further normalized to the corresponding ratios for the control group of mice. Error bars represent the standard error of the means.

[3] = system: MPTP Mouse Model of Parkinson's Disease; assay: MPTP-induced neurotoxicity in MPTP mouse model of Parkinson's disease (striatal tyrosine hydroxylase ELISA); type: in vivo, C57BL/6J mice; settings: acute MPTP 10 mg/kg four times, striatum
From the text: MPTP (1-methyl-4-phenyl-1,2,3,6-tetrahydropyridine) is routinely used as a chemical agent that induces Parkinson's disease-like neurodegeneration in cellular and animal models. Both Parkinson's Disease and MPTP-induced neurotoxicity are associated with a number of different biomarkers including reduction of tyrosine hydroxylase levels and activity. Tyrosine hydroxylase is a key enzyme in the dopamine biosynthesis pathway as it is involved in the conversion of tyrosine to […]. Tyrosine hydroxylase activity is regulated by its phosphorylation status and PP2A is known to be involved in this regulation.
C57BL/6J mice, aged 2-3 months were fed ad libitum, either standard rodent chow (Control), or rodent chow formulated with 0.1 g Compound I-63, or 0.001 g Compound I-63 per 100 g chow (0.1% and 0.001% Compound I-63, respectively); water was changed weekly. Mice were housed at 23° C., on a 12 hour light and dark cycle, with 6 mice per cage. After 2 weeks, 8-12 mice each from the Control, 0.1% Compound 1-63 and 0.001% Compound I-63 groups were injected with either saline, or 10 mg/kg MPTP i.e., four times, every 2 hours, on the same day. Mice were then maintained on their respective feeds for another week, at which point they were sacrificed by cervical dislocation and brains dissected for biochemical analyses.
Striatal tyrosine hydroxylase (TH) content was measured by ELISA as follows. Ninety-six well microliter plates (Thermo Labsystems) were incubated overnight at 4° C. with monoclonal anti-TH antibody (1:500; Calbiochem) in 8 mM sodium phosphate, 2 mM potassium phosphate, and 0.14 M sodium chloride, pH 7.4 (PBS). Wells were washed four times with PBS and then blocked for 1 hour using 5% (w/v) Carnation (Nestle) nonfat dry milk in PBS. Striatal tissue samples were homogenized by sonication in PBS-0.5% Triton X-100 (PBST) with 0.25% (w/v) SDS. […] The reaction product was measured fluorometrically within the linear range of detection (excitation:emission ratio of 530:580 nm). […] Data were expressed as percent TH levels in MPTP-treated mice relative to saline-injected mice. […]

T1 sequence (P67775 whole entry): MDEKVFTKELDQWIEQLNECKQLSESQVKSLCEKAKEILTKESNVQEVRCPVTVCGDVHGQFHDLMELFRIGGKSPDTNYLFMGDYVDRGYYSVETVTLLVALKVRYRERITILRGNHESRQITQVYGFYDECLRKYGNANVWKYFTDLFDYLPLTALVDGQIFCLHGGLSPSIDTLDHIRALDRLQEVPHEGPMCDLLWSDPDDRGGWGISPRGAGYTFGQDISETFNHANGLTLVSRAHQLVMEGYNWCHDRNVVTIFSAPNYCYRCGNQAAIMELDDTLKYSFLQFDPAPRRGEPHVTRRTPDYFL
T1 sequence (P30153 whole entry partner): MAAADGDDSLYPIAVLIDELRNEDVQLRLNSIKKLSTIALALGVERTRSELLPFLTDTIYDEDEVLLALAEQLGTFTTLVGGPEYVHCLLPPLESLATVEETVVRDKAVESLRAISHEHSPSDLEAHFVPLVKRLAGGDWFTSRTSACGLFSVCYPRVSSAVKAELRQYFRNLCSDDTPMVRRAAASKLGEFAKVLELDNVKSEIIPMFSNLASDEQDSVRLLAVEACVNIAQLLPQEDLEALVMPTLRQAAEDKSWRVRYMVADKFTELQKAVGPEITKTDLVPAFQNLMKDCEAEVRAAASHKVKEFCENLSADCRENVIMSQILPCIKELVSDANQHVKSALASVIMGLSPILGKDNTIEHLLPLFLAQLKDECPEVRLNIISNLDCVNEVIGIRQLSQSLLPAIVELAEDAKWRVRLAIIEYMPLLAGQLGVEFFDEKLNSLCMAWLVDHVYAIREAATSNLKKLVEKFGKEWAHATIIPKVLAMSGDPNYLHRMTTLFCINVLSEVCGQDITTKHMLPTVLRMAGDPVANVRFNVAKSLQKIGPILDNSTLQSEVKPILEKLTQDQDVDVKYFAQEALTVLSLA

IC50 [1]: > 100 µM
Compound: CCCCCCCCCCCCCCCCCCCC(=O)NCCc1c[nH]c2ccc(O)cc12 [Compound I-63, N-(2-(5-hydroxy-1H-indol-3-yl)ethyl)icosanamide]
reduction in phosphorylation of tau compared to control ([2]; four weeks): ≥ 70% | reduction in phosphorylation of tau compared to control ([2]; three weeks): > 50% | reduction in phosphorylation of tau compared to control ([2]; two weeks): < 40% | rescuing of the tyrosine hydroxylase defect ([3]; 0.001% diet): approximately 20% | rescuing of the tyrosine hydroxylase defect ([3]; 0.1% diet): approximately 20%
